Test system: SEM cells
Assay: cell viability relative to DMSO control; higher = less cytotoxic
Conditions: 48 h
How it was run: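 Viability is a per-plate percentage relative to DMSO wells, with cell-free wells as background. CellTiter-Glo One luminescence was read after 48 h at 37°C on 1536-well plates (5 μl) of NOMO1 or SEM (500 cells/well) or P12-Ichikawa (1000 cells/well) leukemia cells. The cells had been adapted for at least four passages in each medium and pin-dosed with library compounds in DMSO from 47 μM to 0.79 nM in 11 threefold steps.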

[1] = HPLM + 10% dialyzed FBS, 0.000781 µM
[2] = HPLM + 10% dialyzed FBS, 0.00234 µM
[3] = HPLM + 10% dialyzed FBS, 0.00702 µM
[4] = HPLM + 10% dialyzed FBS, 0.0211 µM
[5] = HPLM + 10% dialyzed FBS, 0.0632 µM
[6] = HPLM + 10% dialyzed FBS, 0.19 µM
[7] = HPLM + 10% dialyzed FBS, 0.569 µM
[8] = HPLM + 10% dialyzed FBS, 1.71 µM
[9] = HPLM + 10% dialyzed FBS, 5.12 µM
[10] = HPLM + 10% dialyzed FBS, 15.4 µM
[11] = HPLM + 10% dialyzed FBS, 46.1 µM
[12] = RPMI 5 mM glucose + 10% FBS, 0.000781 µM
[13] = RPMI 5 mM glucose + 10% FBS, 0.00234 µM
[14] = RPMI 5 mM glucose + 10% FBS, 0.00702 µM
[15] = RPMI 5 mM glucose + 10% FBS, 0.0211 µM
[16] = RPMI 5 mM glucose + 10% FBS, 0.0632 µM
[17] = RPMI 5 mM glucose + 10% FBS, 0.19 µM
[18] = RPMI 5 mM glucose + 10% FBS, 0.569 µM
[19] = RPMI 5 mM glucose + 10% FBS, 1.71 µM
[20] = RPMI 5 mM glucose + 10% FBS, 5.12 µM
[21] = RPMI 5 mM glucose + 10% FBS, 15.4 µM
[22] = RPMI 5 mM glucose + 10% FBS, 46.1 µM
[23] = RPMI 5 mM glucose + 10% dialyzed FBS, 0.000781 µM
[24] = RPMI 5 mM glucose + 10% dialyzed FBS, 0.00234 µM
[25] = RPMI 5 mM glucose + 10% dialyzed FBS, 0.00702 µM
[26] = RPMI 5 mM glucose + 10% dialyzed FBS, 0.0211 µM
[27] = RPMI 5 mM glucose + 10% dialyzed FBS, 0.0632 µM
[28] = RPMI 5 mM glucose + 10% dialyzed FBS, 0.19 µM
[29] = RPMI 5 mM glucose + 10% dialyzed FBS, 0.569 µM
[30] = RPMI 5 mM glucose + 10% dialyzed FBS, 1.71 µM
[31] = RPMI 5 mM glucose + 10% dialyzed FBS, 5.12 µM
[32] = RPMI 5 mM glucose + 10% dialyzed FBS, 15.4 µM
[33] = RPMI 5 mM glucose + 10% dialyzed FBS, 46.1 µM

SMILES	cell viability [1] [%]	cell viability [2] [%]	cell viability [3] [%]	cell viability [4] [%]	cell viability [5] [%]	cell viability [6] [%]	cell viability [7] [%]	cell viability [8] [%]	cell viability [9] [%]	cell viability [10] [%]	cell viability [11] [%]	cell viability [12] [%]	cell viability [13] [%]	cell viability [14] [%]	cell viability [15] [%]	cell viability [16] [%]	cell viability [17] [%]	cell viability [18] [%]	cell viability [19] [%]	cell viability [20] [%]	cell viability [21] [%]	cell viability [22] [%]	cell viability [23] [%]	cell viability [24] [%]	cell viability [25] [%]	cell viability [26] [%]	cell viability [27] [%]	cell viability [28] [%]	cell viability [29] [%]	cell viability [30] [%]	cell viability [31] [%]	cell viability [32] [%]	cell viability [33] [%]
CCC1(C)CC(=O)NC1=O (stereo not given)	107	102	109	112	114	114	106	95.5	110	94.5	81.7	113	101	107	107	103	106	106	93.7	103	92.3	72.3	93.7	114	117	114	116	108	110	99.7	108	94	74.3
CC(=O)O.Cc1c(-c2ccc(O)cc2)n(Cc2ccc(OCCN3CCCCCC3)cc2)c2ccc(O)cc12	88.5	50	91.9	92	99.7	112	102	101	93.5	117	99.5	92	46.9	89	98.7	86.6	95.4	89.2	95.5	86.9	92.5	94.4	90.2	41.7	93.8	99.6	81.2	102	101	94.1	110	119	101
COc1c(C)cnc(Cn2cnc3c(Cl)nc(N)nc32)c1C	94.1	106	103	112	102	76.9	52.8	28.3	15.9	22.3	17.6	108	125	99.6	115	100	77.3	50	25.5	16.1	22.9	17.3	115	104	106	116	124	78.6	52.9	33.1	15.8	25	22.1
O=NN(CCCl)C(=O)NCCCl	75.9	89	117	86.6	100	121	107	121	94.1	110	85.8	85.4	105	104	110	121	119	119	125	129	118	102	80.1	88.3	100	87.4	113	108	102	117	111	107	84.3
C[C@]\12CC[C@H](O)CC1=C/CC3C2CC[C@@]\4(C)C3C\C=C4[N]5C=NC6=C5C=CC=C6 (stereo not given in full)	90.4	82.4	99.7	103	61.4	97.7	109	115	109	114	101	96.1	93.3	101	121	96.6	97	109	115	117	113	104	99.8	88.9	106	115	102	103	108	119	109	109	112
C[C@@H](NC1=CC=CC=C1C(O)=O)C/2=C/C(=C\N3C(=O)/C=C(\N=C23)N4CCOCC4)C	69.7	76.5	91.3	77.7	87.8	77.7	84.3	79.1	61.1	13.4	19.8	89.1	92.3	117	92.8	104	90.6	98.2	87.5	55	8.88	13.3	65	76.4	91.7	87	92.7	77.8	70.3	63.9	44.1	9.08	11.2
CC(C)n1nc(-c2cc3cc(O)ccc3[nH]2)c2c(N)ncnc21	93.3	104	111	94.3	81	84.4	45.2	52.9	25.9	16.7	6.97	106	107	114	136	108	85.4	66.3	66	38	23.6	8.3	90.8	99.4	92.4	87.7	94.8	87.6	48.7	52.4	35.4	20.9	6.33
CN[S+](=O)([O-])Cc1ccc2[nH]cc(CCN(C)C)c2c1	95.3	104	102	111	112	118	113	119	118	129	118	89.2	114	104	114	107	119	121	115	126	128	128	93.4	86	87	91.8	94.1	102	95.7	106	94.8	111	92.9
CC(=O)O[C@H]1C(=O)[C@]2(C)[C@@H](O)C[C@H]3OC[C@@]3(OC(C)=O)C2[C@H](OC(=O)C4=CC=CC=C4)[C@]5(O)C[C@H](OC(=O)[C@H](O)[C@@H](NC(=O)C6=CC=CC=C6)C7=CC=CC=C7)\C(=C1/C5(C)C)C (stereo not given in full)	81.5	50	31.7	27.9	27.8	26.4	26.8	24.1	26.8	22.6	25.9	59.1	30.5	22.3	17	16.2	14.2	16.3	15.7	15.6	15.6	13.5	81.3	48.1	35.2	26.3	24.2	23.3	22.8	22.3	22.4	23.9	22.3
CC\1=C(C(\N=C(/N1)C2=CC(=NC=C2)Cl)C3=C(F)C=C(Cl)C=C3)/C(=O)NC4=C(F)C=C5[NH]N=CC5=C4 (stereo not given)	82.1	84.4	100	94.9	93.2	99.6	104	103	81.2	54.5	10.8	102	86.8	97.3	117	94.5	99.1	99.9	85.4	66.3	51.7	6.87	87.7	90.3	103	108	102	122	96.3	101	81.3	55.2	13.5
CC(C)[C@@H](N(CCCN)C(=O)C1=CC=C(C)C=C1)C/2=N/C3=CC(=CC=C3C(=O)N2CC4=CC=CC=C4)Cl	84.5	21	20.5	19.5	16	20.4	19.5	20.2	21.9	21.2	21.9	103	16.5	14.8	14	15.9	15	12.3	13.7	16.8	16.2	11.6	80	19.8	16.2	15.7	16.4	14.4	17.5	14.8	16.4	17.2	13.2
CC1(C)CC(=O)c2c(C(F)(F)F)nn(-c3ccc(C(N)=O)c(NC4CCC(O)CC4)c3)c2C1 (stereo not given)	93.6	84.7	88.6	98	93.5	36.8	20.9	18.4	19.2	16.9	77.6	105	97.5	84.4	84.2	111	37.1	15.7	19.4	16.1	17.4	99.9	83.7	102	66.3	63.5	76.6	34.4	12.8	20.6	17.8	18.1	84.3
CC/1=C/C(=O)N(O)/C(=C1)C2CCCCC2	82.9	89.7	119	111	116	106	126	126	117	50.8	12.6	113	111	135	124	129	143	140	147	101	55.3	14.2	92.9	94.4	126	117	122	147	140	144	113	56.4	14.4
COc1ccc(C[C@@H](C)[C@@H](C)Cc2ccc(OC)c(OC)c2)cc1OC	73.5	93.2	85.2	92.7	96	94.9	91.8	83.2	19	16.3	8.54	80.6	104	102	111	106	120	93.3	82.4	18.7	16.7	4.5	76.3	97.7	88.9	91.7	88.9	83.7	81.1	74	18.3	14.9	4
Cc1ccccc1N1C(=O)c2cc([S+](N)(=O)[O-])c(Cl)cc2NC1C (stereo not given)	117	108	105	107	122	117	28.7	102	112	107	103	142	120	117	109	118	126	22.5	128	119	112	84.4	125	103	89.6	103	100	97.5	26.8	126	112	108	97.2
